Tested on: C. acnes (ATCC 6919)
Experiment: Growth of C. acnes, MIC plate method
Assay type: cell-based, Cutibacterium acnes
Details: actives at the stated % in 20 ml agar; 10 μl inoculum spotted; 37° C. 4-5 days anaerobically
Method: The actives whether used singly or in combination as shown in Table-1 were tested for growth of C. acnes using the invitro protocol as given below:
Protocol used for Measuring Growth (MIC Plate Method)
Working Cultures of Test Organisms
For C. acnes (ATCC 6919): Approximately 4-5 days prior to testing, a sterile plate of […] (RCM Agar) was inoculated with the challenge bacterial test organism and incubated at 37° C.±1° C. for 4-5 days anaerobically.
Test Organism Suspensions (To Be Prepared Just Before Use)
A suspension of the challenge microorganism was prepared in sterile 0.85% saline and a cell density were adjusted at 620 nm to achieve a challenge suspension concentration of approximately 1.0×10^8 colony forming units per ml for bacteria
Preparation of Sample Concentrations
• a) Aliquot of samples were taken to achieve required test concentration in 20 ml of agar system. • b) Test samples were initially dissolved in 1 ml of sample diluent (sterile d/water or solvent) to get test solutions • c) The test solutions were added to 20 ml sterile molten agar maintained at a temperature of 45-50° C., mixed thoroughly and poured into petri plates. The agar was allowed to solidify at room temperature. • d) On solidification, 10μl inoculum of prepared test culture was spotted onto respective agar surfaces in duplicates • e) The inoculated plates were allowed to stand at room temperature until the inoculum spots had been absorbed into the agar. The plates were incubated at 37° C. ±1° C. for 4-5 days anaerobically. After completion of incubation, plates were checked for growth and no growth to determine the MIC value.

SMILES	Observation (growth of C. acnes)
Oc1ccc(C2CCCC2)cc1 [E, 4 cyclo pentyl phenol]	Growth
CCCCCCc1ccc(O)cc1O [Example A, 4 hexyl resorcinol]	Growth
CCC(C)c1ccc(O)cc1 (stereo not drawn) [C, 4 sec butyl phenol]	Growth
